# Several values for one entry are separate records, joined by “and”; a condition that tells them apart may be missing. Identical values can stand only once. Positions of bridges follow the written chain, without caps; N, C: chain ends. Residues, ends and D or L forms follow the SMILES beside them.
# Tests used:
# [1] = test system: endothelium-intact aortic rings (NPR-C mediated); assay: Aortic ring relaxation, endothelium-intact rings pre-contracted with 40 mM KCl (Example 3); parameters: species or system rat; conditions: endothelium-intact rat aortas pre-contracted with 40 mM KCl; peptide 0.1 μM
# Method: (§1) Male Sprague Dawley rats were killed and the descending thoracic aorta rapidly removed and flushed with physiological solution. After being cleared of adhering fat and connective tissue, 5 mm rings were mounted under 10 g resting tension, between two stainless steel hooks, in organ baths (37° C.) containing carbogenated (95% O2 and 5% CO2) physiological salt solution of the following composition (mM): NaCl, 118.4; NaHCO3, 25; glucose, 11; KCl, 4.7; MgSO4, 1.2; KH2PO4, 1.2 and CaCl2, 2.5. The lower hook was attached to a tissue holder and the upper hook to a force displacement transducer (Grass FTO3). Where indicated endothelial cells were removed by gentle rubbing of the intimal surface with a wire. To confirm the presence or absence of endothelial cells, tissues were precontracted with a sub-maximal concentration of phenylephrine (0.3 μM) and the response to acetylcholine (ACh, 10 μM) observed. Ach-induced relaxation greater than 80% of maximum indicated the presence of endothelium; whereas Ach-induced relaxation less than 10% indicated the absence of endothelium. Ring preparations under resting tension were conditioned by two contraction/relaxation cycles with 40 mM KCl, contracted by a third application of 40 mM KCl and then relaxed with different doses of the venom peptides. Responses were expressed as a percentage relaxation of the precontraction by KCl.
# [2] = test system: conscious rabbits; assay: Blood pressure and heart rate in conscious rabbits, intravenous infusion dose-response (Example 8); conditions: for Diastolic BP, Average Response SED / HR, Average Response SED / Mean BP (MAP), Average Response SED / Systolic BP, Average Response SED: average of the 3 doses 1.0, 2.0, 4.0 μg/kg/min; for Diastolic BP, mean difference from control / HR, mean difference from control / Mean BP, mean difference from control / Systolic BP, mean difference from control: 45 min
# [3] = molecular target: T1, Plasmin (Homo sapiens, UniProt P00747); assay: Stability to enzymatic degradation by plasmin (Examples 7, 16); type: in vitro ADME; conditions: plasmin, 37° C.; for half-life at 125 μM: plasmin in Tris/HCl-NaCl buffer, read-out: HalfLife in plasmin
# T1 construct: with 500 ng Endopeptidase (NEP) or 10 μg Plasmin
# T1 sequence (P00747 97-580 partner limits assumed, species assumed): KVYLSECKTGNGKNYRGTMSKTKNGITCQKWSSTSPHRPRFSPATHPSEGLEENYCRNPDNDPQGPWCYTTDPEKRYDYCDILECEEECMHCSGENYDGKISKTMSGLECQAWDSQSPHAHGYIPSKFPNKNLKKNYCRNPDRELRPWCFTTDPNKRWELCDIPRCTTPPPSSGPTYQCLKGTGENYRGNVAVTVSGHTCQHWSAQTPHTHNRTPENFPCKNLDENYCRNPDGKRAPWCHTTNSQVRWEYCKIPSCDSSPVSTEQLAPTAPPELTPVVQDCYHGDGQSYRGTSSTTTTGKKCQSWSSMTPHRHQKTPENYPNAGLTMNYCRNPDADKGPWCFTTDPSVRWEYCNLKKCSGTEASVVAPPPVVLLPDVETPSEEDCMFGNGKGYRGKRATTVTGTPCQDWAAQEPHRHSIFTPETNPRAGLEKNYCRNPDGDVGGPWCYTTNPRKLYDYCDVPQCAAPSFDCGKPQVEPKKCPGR
# T1 sequence (P00747 581-810 limits assumed, species assumed): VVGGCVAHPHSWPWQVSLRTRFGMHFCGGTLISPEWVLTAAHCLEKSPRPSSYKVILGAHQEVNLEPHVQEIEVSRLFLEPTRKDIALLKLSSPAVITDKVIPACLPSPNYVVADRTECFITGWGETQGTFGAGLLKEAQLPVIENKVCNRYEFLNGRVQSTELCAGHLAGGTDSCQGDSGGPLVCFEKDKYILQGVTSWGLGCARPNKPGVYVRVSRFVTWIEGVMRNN
# Method: The incubation buffer contained 100 mM Tris/HCl and 150 mM NaCl and the pH was adjusted to 7.2-7.4. In each assay, 100 μl of peptide [500 μM] was incubated with 300 μl buffer (with 500 ng Endopeptidase (NEP) or 10 μg Plasmin) at 37° C. 50 μl aliquots were taken at times 5 min, 30 min, 60 min, 90 min, 180 min and 24 h. The reaction was quenched by heating to 100° C. for 4 min and the remaining peptide concentrations measured by RP-HPLC. Note that the levels of Plasmin required to degrade these peptides was several thousands time the levels present in human plasma.
# The stability of TDT and was investigated using the same enzymatic degradation assays (NEP, plasmin, pepsin) disclosed in Example 7. […] It is also evident that the increased NEP stability cannot be explained by the length of the tail region alone as the NEP cleavage site residues at the N-terminal end of the loop region.
# [4] = test system: endothelium-denuded aortic rings (GC-A mediated); assay: Aortic ring relaxation, endothelium-denuded rings pre-contracted with 40 mM KCl (Example 3); parameters: species or system rat; conditions: endothelium-denuded rat aortas pre-contracted with 40 mM KCl; peptide 0.1 μM
# Method: as §1
# [5] = molecular target: T2, Natriuretic Peptide Receptor-A (NPR-A) signaling in MDCK cells (Canis lupus familiaris, UniProt A0A8I3MHU3); type: cell-based, canine; conditions: stimulation of cGMP accumulation in MDCK cells
# T2 sequence (A0A8I3MHU3 32-1060): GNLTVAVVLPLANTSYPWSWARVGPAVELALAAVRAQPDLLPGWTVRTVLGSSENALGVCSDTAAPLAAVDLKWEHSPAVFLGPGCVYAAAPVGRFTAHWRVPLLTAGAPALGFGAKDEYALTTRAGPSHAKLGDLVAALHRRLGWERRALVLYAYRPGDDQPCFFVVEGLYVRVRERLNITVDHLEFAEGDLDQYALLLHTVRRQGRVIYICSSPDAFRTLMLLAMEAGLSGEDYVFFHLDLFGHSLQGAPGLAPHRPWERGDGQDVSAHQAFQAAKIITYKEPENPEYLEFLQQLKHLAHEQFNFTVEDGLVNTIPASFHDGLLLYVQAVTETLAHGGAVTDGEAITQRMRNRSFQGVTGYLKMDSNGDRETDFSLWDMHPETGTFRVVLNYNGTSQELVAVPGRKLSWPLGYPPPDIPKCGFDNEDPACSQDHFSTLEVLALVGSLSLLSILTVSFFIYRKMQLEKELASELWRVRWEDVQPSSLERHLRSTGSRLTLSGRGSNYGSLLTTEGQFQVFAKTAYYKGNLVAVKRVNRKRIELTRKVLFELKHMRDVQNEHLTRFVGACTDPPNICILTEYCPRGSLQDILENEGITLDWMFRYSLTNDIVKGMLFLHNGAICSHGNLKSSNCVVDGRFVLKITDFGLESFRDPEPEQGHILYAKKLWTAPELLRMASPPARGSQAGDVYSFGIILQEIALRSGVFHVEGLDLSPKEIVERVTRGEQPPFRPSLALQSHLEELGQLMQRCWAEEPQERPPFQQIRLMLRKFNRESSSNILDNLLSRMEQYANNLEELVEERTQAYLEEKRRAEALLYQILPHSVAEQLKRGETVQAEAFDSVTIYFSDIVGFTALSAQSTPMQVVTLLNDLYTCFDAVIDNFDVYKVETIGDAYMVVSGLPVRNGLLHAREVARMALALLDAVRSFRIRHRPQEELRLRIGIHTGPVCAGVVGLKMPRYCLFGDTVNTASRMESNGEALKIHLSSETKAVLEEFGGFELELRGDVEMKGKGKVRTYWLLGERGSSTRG
# [6] = after 1 hour recovery period, Table 10A
compound,measurement,setting,value
"CC[C@H](C)[C@@H]1NC(=O)[C@H](CCCCN)NC(=O)[C@H](Cc2c[nH]cn2)NC(=O)CNC(=O)[C@H](Cc2ccccc2)NC(=O)[C@@H](NC(=O)[C@@H]2CCCN2C(=O)[C@H](CC(=O)O)NC(=O)[C@H](Cc2ccc(O)cc2)NC(=O)[C@H](CCCCN)NC(=O)[C@@H](NC(=O)[C@@H](N)CCC(=O)O)C(C)C)CSSC[C@@H](C(=O)N2CCC[C@H]2C(=O)N[C@@H](CO)C(=O)N[C@@H](CC(C)C)C(=O)N[C@@H](CCCNC(=N)N)C(=O)N[C@@H](CC(=O)O)C(=O)N2CCC[C@H]2C(=O)N[C@@H](CCCNC(=N)N)C(=O)N2CCC[C@H]2C(=O)N[C@@H](CC(N)=O)C(=O)N[C@@H](C)C(=O)N2CCC[C@H]2C(=O)N[C@@H](CO)C(=O)N[C@H](C(=O)N[C@@H](CO)C(=O)N[C@@H](C)C(=O)O)[C@@H](C)O)NC(=O)CNC(=O)[C@H](CC(C)C)NC(=O)[C@H](CC(N)=O)NC(=O)[C@H](CO)NC(=O)[C@H](C(C)C)NC(=O)[C@H](Cc2c[nH]cn2)NC(=O)[C@H](CC(N)=O)NC(=O)[C@H]([C@@H](C)CC)NC(=O)[C@H](CCCNC(=N)N)NC(=O)[C@H](CC(=O)O)NC1=O [DNP, reference compound] (H-EVKYDPCFGHKIDRINHVSNLGCPSLRDPRPNAPSTSA-OH; disulfide 7-23; N-terminus and C-terminus assumed)",percentage relaxation of the precontraction by KCl,[1],~100%
same,Recovery (MAP),[2]; [6],61.4 mm Hg
same,Recovery Delta SED (MAP),[2]; [6],2.5 ± 1.1 mm Hg
same,"Diastolic BP, Average Response SED",[2],−9.0 ± 0.9 mmHg
same,"HR, Average Response SED",[2],17.3 ± 6.4 bpm
same,"Mean BP (MAP), Average Response SED",[2],−14.2±0.8 mmHg
same,"Systolic BP, Average Response SED",[2],−13.3 ± 0.8 mmHg
same,MAP at final dose,"[2]; highest dose, Table 10A",58.9 mm Hg
same,"Treatment Effect, change of mean blood pressure during the infusion","[2]; highest dose, Table 10A, groups 1, 2A and 3",−17.2 mm Hg
same,"Diastolic BP, mean difference from control",[2]; i.v. infusion 1.0 μg/kg/min,−8.5 mmHg
same,"HR, mean difference from control",[2]; i.v. infusion 1.0 μg/kg/min,17.5 bpm
same,"Mean BP, mean difference from control",[2]; i.v. infusion 1.0 μg/kg/min,−13.0 mmHg
same,"Systolic BP, mean difference from control",[2]; i.v. infusion 1.0 μg/kg/min,−11.7 mmHg
same,"Diastolic BP, mean difference from control",[2]; i.v. infusion 2.0 μg/kg/min,−6.9 mmHg
same,"HR, mean difference from control",[2]; i.v. infusion 2.0 μg/kg/min,25.9 bpm
same,"Mean BP, mean difference from control",[2]; i.v. infusion 2.0 μg/kg/min,−12.6 mmHg
same,"Systolic BP, mean difference from control",[2]; i.v. infusion 2.0 μg/kg/min,−11.9 mmHg
same,"Diastolic BP, mean difference from control",[2]; i.v. infusion 4.0 μg/kg/min,−11.7 mmHg
same,"HR, mean difference from control",[2]; i.v. infusion 4.0 μg/kg/min,8.5 bpm
same,"Mean BP, mean difference from control",[2]; i.v. infusion 4.0 μg/kg/min,−17.2 mmHg
same,"Systolic BP, mean difference from control",[2]; i.v. infusion 4.0 μg/kg/min,−16.4 mmHg
same,half-life at 125 μM,[3],29.1 min
same,"K (one phase exponential decay, best fit values)",[3],0.02381
same,"PLATEAU (one phase exponential decay, best fit values)",[3],0.1675
same,"SPAN (one phase exponential decay, best fit values)",[3],0.7306
same,percentage relaxation of the precontraction by KCl,[4],~100%
same,−Log10 EC50 (pEC50) ± Standard Error,[5],8.080 ± 1.411
CC[C@H](C)[C@H](NC(=O)[C@H](CCCCN)NC(=O)[C@H](CO)NC(=O)[C@H](CC(=O)O)NC(=O)[C@@H](N)CO)C(=O)NCC(=O)N[C@@H](CC(N)=O)C(=O)NCC(=O)N[C@H]1CSSC[C@@H](C(=O)N[C@@H](CC(N)=O)C(=O)N[C@@H](CCCNC(=N)N)C(=O)N[C@H](C(=O)N[C@@H](CCSC)C(=O)N[C@@H](CCC(N)=O)C(=O)N[C@@H](CC(N)=O)C(=O)N2CCC[C@H]2C(=O)N2CCC[C@H]2C(=O)N[C@@H](CCCCN)C(=O)N[C@@H](CCCCN)C(=O)N[C@@H](Cc2ccccc2)C(=O)N[C@@H](CO)C(=O)NCC(=O)N[C@@H](CCC(=O)O)C(=O)O)[C@@H](C)CC)NC(=O)CNC(=O)[C@H](CC(C)C)NC(=O)CNC(=O)[C@H](CO)NC(=O)[C@H](C(C)C)NC(=O)[C@H](CO)NC(=O)CNC(=O)[C@H]([C@@H](C)CC)NC(=O)[C@H](CCCNC(=N)N)NC(=O)[C@H](CC(=O)O)NC(=O)[C@H](CC(C)C)NC(=O)[C@@H]2CCCN2C(=O)[C@H](Cc2ccccc2)NC(=O)CNC(=O)[C@H](Cc2ccccc2)NC1=O [TNPc] (H-SDSKIGNGCFGFPLDRIGSVSGLGCNRIMQNPPKKFSGE-OH; disulfide 9-25),percentage relaxation of the precontraction by KCl,[1],~100%
same,"recovery of MAP, in words",[2]; 2 hours after infusion,remained suppressed for 2 hours
same,MAP at final dose,[2]; Table 10B,58.9 mm Hg and 61.3 mm Hg
same,Recovery (MAP),[2]; [6],56.6 mm Hg and 58.8 mm Hg
same,Recovery (MAP),"[2]; after a 2 hour recovery period, Table 10B",58.8 mm Hg and 66.1 mm Hg
same,"Diastolic BP, Average Response SED",[2],−12.5 ± 0.6 mmHg
same,"HR, Average Response SED",[2],4.7 ± 3.8 bpm
same,"Mean BP (MAP), Average Response SED",[2],−14.9±0.7 mmHg
same,"Systolic BP, Average Response SED",[2],−13.2 ± 0.8 mmHg
same,effective half life compared to BNP,[2]; bolus injection,3 fold
same,time taken to recover to 50% of the peak response,[2]; bolus injection of 0.24 mg/kg TNPc or equivalent molar dose of BNP,225 min
same,MAP at final dose,"[2]; highest dose, Table 10A",56.1 mm Hg and 58.9 mm Hg
same,"Diastolic BP, mean difference from control",[2]; i.v. infusion 1.0 μg/kg/min,−10.0 mmHg
same,"HR, mean difference from control",[2]; i.v. infusion 1.0 μg/kg/min,−3.5 bpm
same,"Mean BP, mean difference from control",[2]; i.v. infusion 1.0 μg/kg/min,−11.0 mmHg
same,"Systolic BP, mean difference from control",[2]; i.v. infusion 1.0 μg/kg/min,−9.1 mmHg
same,"Diastolic BP, mean difference from control",[2]; i.v. infusion 2.0 μg/kg/min,−14.7 mmHg
same,"HR, mean difference from control",[2]; i.v. infusion 2.0 μg/kg/min,3.7 bpm
same,"Mean BP, mean difference from control",[2]; i.v. infusion 2.0 μg/kg/min,−17.7 mmHg
same,"Systolic BP, mean difference from control",[2]; i.v. infusion 2.0 μg/kg/min,−15.6 mmHg
same,"Diastolic BP, mean difference from control",[2]; i.v. infusion 4.0 μg/kg/min,−12.8 mmHg
same,"HR, mean difference from control",[2]; i.v. infusion 4.0 μg/kg/min,13.8 bpm
same,"Mean BP, mean difference from control",[2]; i.v. infusion 4.0 μg/kg/min,−15.9 mmHg
same,"Systolic BP, mean difference from control",[2]; i.v. infusion 4.0 μg/kg/min,−14.9 mmHg
same,"recovery of MAP from the hypotension, in words",[2]; one hour after the end of infusion,MAP had not changed
same,half-life at 125 μM,[3],23.6 min
same,"K (one phase exponential decay, best fit values)",[3],0.02935
same,"PLATEAU (one phase exponential decay, best fit values)",[3],0.1128
same,"SPAN (one phase exponential decay, best fit values)",[3],0.8454
same,percentage relaxation of the precontraction by KCl,[4],~100%
same,−Log10 EC50 (pEC50) ± Standard Error,[5],6.928 ± 0.1122
same,EC50,[5]; read-out: EC50 (M) ± Standard Error,1.84e-07 M
